How the values were obtained:
Dirofilaria immitis = test: Heartworm screen Dirofilaria immitis (stage DiMF/DiL4 not specified in the tables); format: cell-based; details: read-out: D. immitis Activity class
[1] = test system: Onchocerca gutturosa adult male worms; test: Onchocerca gutturosa in vitro screening model: adult worm motility score and MTT/formazan viability; format: cell-based; details: read-out: O. gutt Activity class

SMILES	IC50 (Dirofilaria immitis)	IC50 [1]
O=S(=O)(Nc1ccc(C(F)(F)F)c2cccnc12)c1nccn1-c1ccccc1 [Compound 289, 1-phenyl-N-(5-(trifluoromethyl)quinolin-8-yl)-1H-imidazole-2-sulfonamide]	< 200 nM	–
O=S(=O)(Nc1cccc2cccnc12)c1ccc(C2CC2)nc1 [Compound 142, 6-cyclopropyl-N-(quinolin-8-yl)pyridine-3-sulfonamide]	500 to 5000 nM	–
O=S(=O)(Nc1cccc2cccnc12)c1ccc(C(F)(F)F)cn1 [Compound 145, N-(quinolin-8-yl)-5-(trifluoromethyl) pyridine-2-sulfonamide]	200 to 500 nM	–
CCn1ccnc1S(=O)(=O)Nc1cc(C(=O)c2ccccc2)cc2cccnc12 [Compound 297, N-(6-benzoylquinolin-8-yl)-1-ethyl-1H-imidazole-2-sulfonamide]	200 to 500 nM	–
Cc1cc(C(F)(F)F)ncc1S(=O)(=O)Nc1cccc2cccnc12 [Compound 166, 4-methyl-N-(quinolin-8-yl)-6-(trifluoromethyl) pyridine-3-sulfonamide]	500 to 5000 nM	–
Cc1ccnc2c(NS(=O)(=O)c3ccc(C(F)(F)F)nc3)cccc12 [Compound 8, N-(4-methyl-quinolin-8-yl)-6-(trifluoro-methyl)pyr-idine-3-sulfon-amide]	200 to 500 nM	–
Cc1ccc(C(F)(F)F)c(S(=O)(=O)Nc2cccc3cccnc23)n1 [Compound 165, 6-methyl-N-(quinolin-8-yl)-3-(trifluoromethyl) pyridine-2-sulfonamide]	200 to 500 nM	–
CCn1ccnc1S(=O)(=O)Nc1cccc2c(Cl)ccnc12 [Compound 85, N-(4-chloro-quinolin-8-yl)-1-ethyl-1H-imidazole-2-sulfonamide]	500 to 5000 nM	–
O=S(=O)(Nc1ccc(Oc2cccc(C(F)(F)F)c2)c2cccnc12)c1nccn1CC(F)(F)F [Compound 292, 1-(2,2,2-trifluoroethyl)-N-(5-(3-(trifluoromethyl)phenoxy)quinolin-8-yl)-1H-imidazole-2-sulfonamide]	< 200 nM	–
CCn1ccnc1S(=O)(=O)Nc1ccc(Br)c2cccnc12 [Compound 293, N-(5-bromoquinolin-8-yl)-1-ethyl-1H-imidazole-2-sulfonamide]	< 200 nM	–
O=S(=O)(Nc1cccc2cccnc12)c1nc2ccccc2[nH]1 [Compound 232, N-(quinolin-8-yl)-1H-benzo[d] imidazole-2-sulfonamide]	500 to 5000 nM	–
Cc1ccc2cccc(NS(=O)(=O)c3ncccc3C)c2n1 [Compound 67, 3-methyl-N-(2-methyl-quinolin-8-yl)pyridine-2-sulfonamide]	500 to 5000 nM	–
CCn1ccnc1S(=O)(=O)Nc1ccc(S(C)(=O)=O)c2cccnc12 [Compound 294, 1-ethyl-N-(5-(methylsulfonyl)quinolin-8-yl)-1H-imidazole-2-sulfonamide]	200 to 500 nM	–
CCn1ccnc1S(=O)(=O)Nc1cccc2cc(N(C)C)cnc12 [Compound 286, N-(3-(dimethylamino)quinolin-8-yl)-1-ethyl-1H-imidazole-2-sulfonamide]	200 to 500 nM	–
Cc1ccc(S(=O)(=O)Nc2cc(Cl)cc3cccnc23)nc1 [Compound 115, N-(6-chloro-quinolin-8-yl)-5-methylpyr-idine-2-sulfon-amide]	500 to 5000 nM	–
O=S(=O)(Nc1cc(F)cc2cccnc12)c1nccn1-c1ccc(C(F)(F)F)cc1 [Compound 295, N-(6-fluoroquinolin-8-yl)-1-(4-(trifluoromethyl)phenyl)-1H-imidazole-2-sulfonamide]	< 200 nM	–
O=S(=O)(Nc1cccc2cccnc12)c1cncc(C(F)(F)F)c1 [Compound 263, N-(quinolin-8-yl)-5-(trifluoromethyl) pyridine-3-sulfonamide]	200 to 500 nM	–
Cc1cnccc1S(=O)(=O)Nc1cccc2cccnc12 [Compound 149, 3-methyl-N-(quinolin-8-yl)pyridine-4-sulfonamide]	500 to 5000 nM	–

SMILES	IC50 (Dirofilaria immitis)	IC50 [1]
CCn1ccnc1S(=O)(=O)Nc1cccc2c(C)ccnc12 [Compound 104, 1-ethyl-N-(4-methylquin-olin-8-yl)-1H-imidazole-2-sulfonamide]	200 to 500 nM	–
O=S(=O)(Nc1ccc(-c2ccc(F)cc2)c2cccnc12)c1nccn1CC(F)(F)F [Compound 296, N-(5-(4-fluorophenyl)quinolin-8-yl)-1-(2,2,2-trifluoroethyl)-1H-imidazol-2-sulfonamide]	< 200 nM	–
Cc1ccccc1S(=O)(=O)Nc1cccc2cccnc12 [Compound 266, 2-methyl-N-(quinolin-8-yl)benzenesulfon-amide]	500 to 5000 nM	–
CCn1ccnc1S(=O)(=O)Nc1ccc(C#N)c2cccnc12 [Compound 290, N-(5-cyanoquinolin-8-yl)-1-ethyl-1H-imidazole-2-sulfonamide]	200 to 500 nM	–
COc1ccnc2c(NS(=O)(=O)c3ccc(C(F)(F)F)nc3)cccc12 [Compound 10, N-(4-meth-oxyquinolin-8-yl)-6-(trifluoro-methyl)pyr-idine-3-sulfonamide]	500 to 5000 nM	–
Cc1cc(C)c(S(=O)(=O)Nc2cccc3cccnc23)cn1 [Compound 164, 4,6-dimethyl-N-(quinolin-8-yl)pyridine-3-sulfonamide]	500 to 5000 nM	–
COc1cnc2c(NS(=O)(=O)c3ccc(C(F)(F)F)nc3)cccc2c1 [Compound 11, N-(3-meth-oxyquinolin-8-yl)-6-(trifluoro-methyl)pyr-idine-3-sulfonamide]	500 to 5000 nM	–
COc1ccc2cccnc2c1NS(=O)(=O)c1ccc(C)cn1 [Compound 111, N-(7-methoxy-quinolin-8-yl)-5-methylpyr-idine-2-sulfonamide]	500 to 5000 nM	–
Cc1ccc(C(F)(F)F)nc1S(=O)(=O)Nc1cccc2cccnc12 [Compound 163, 3-methyl-N-(quinolin-8-yl)-6-(trifluoromethyl) pyridine-2-sulfonamide]	500 to 5000 nM	–
O=S(=O)(Nc1c(Cl)cc(F)c2cccnc12)c1ncccc1C1CC1 [Compound 140, N-(7-chloro-5-fluoroquinolin-8-yl)-3-cyclo-propylpyridine-2-sulfonamide]	500 to 5000 nM	–
Cc1ccncc1S(=O)(=O)Nc1cccc2cccnc12 [Compound 148, 4-methyl-N-(quinolin-8-yl)pyridine-3-sulfonamide]	500 to 5000 nM	–
CCn1ccnc1S(=O)(=O)Nc1cccc2c(C(C)=O)ccnc12 [Compound 288, N-(4-acetylquinolin-8-yl)-1-ethyl-1H-imidazole-2-sulfonamide]	200 to 500 nM	–
O=S(=O)(Nc1cccc2cccnc12)c1cnccc1C(F)(F)F [Compound 147, N-(quinolin-8-yl)-4-(trifluoromethyl) pyridine-3-sulfonamide]	500 to 5000 nM	–
Cc1cnc2c(NS(=O)(=O)c3ncccc3C)cccc2c1 [Compound 66, 3-methyl-N-(3-methyl-quinolin-8-yl)pyridine-2-sulfonamide]	500 to 5000 nM	–
CN1CCC(S(=O)(=O)Nc2cccc3cccnc23)CC1 [Compound 216, 1-methyl-N-(quinolin-8-yl)piperidine-4-sulfonamide]	–	500 to 5000 nM
CC(C)n1ccnc1S(=O)(=O)Nc1cccc2cccnc12 [Compound 241, 1-isopropyl-N-(quinolin-8-yl)-1H-imidazole-2-sulfonamide]	–	< 200 nM
COc1ccc(NS(=O)(=O)c2ccco2)c2ncccc12 [Compound 60, N-(5-meth-oxyquinolin-8-yl)furan-2-sulfonamide]	–	500 to 5000 nM
Cc1nccnc1S(=O)(=O)Nc1c(Cl)ccc2cccnc12 [Compound 70, N-(7-chloro-quinolin-8-yl)-3-methyl-pyrazine-2-sulfonamide]	–	500 to 5000 nM

Reference: US20240148744A1 (Celgene Corporation, priority 2021, published 2024)
